From patent US10030056B2, “Agents for preventing and treating HIV and other viral infections” (priority 2013, dated 2018)
Non-standard residues stand in square brackets, D forms with d. No end group written: not given here.

Key:
[1] = system: HIV-1 laboratory strain NL4-3 PI 952; test: Infectivity of HIV-1 NL4-3 PI 952 in TZM-bl cells with 6 μg/ml SEVI fibrils, luciferase activity (FIG. 4, Table 1); assay type: cell-based; conditions: for luciferase activity of infected cells, mean value: 6 μg/ml SEVI fibrils, 48 hours after infection, HIV + SEVI control 7264.0, HIV + PBS 579.0; for lowering of the increased infectivity of the viruses caused by fibrils associated with SEVI: summary of Table 1 / FIG. 4
Procedure: The test approach was broken down as follows: The reporter cell line TZM-bl was incubated with the HIV-1 laboratory strain NL4-3 PI 952 in the presence of 6 μg/ml SEVI fibrils (fibril-forming PAP fragments isolated from semen; semen derived enhancer of virus infection). The fibrils were pre-Incubated with or without D3 and D3D3 (0.5 and 5 μg/ml, respectively) prior to infection. The infection efficiency was determined by measuring the luciferase activity (introduced by a luciferase gene coded in the laboratory strain) of the infected cells 48 hours after infection (Table 1: Results of FIG. 4).

[2] = system: HIV-1
Description: So as to analyze the effect of the amyloidogenic inhibitor D3 as a potential therapeutic agent for reducing amyloid peptide-promoted retroviral propagation, adherently growing TZM-bl cells were infected with HIV-1. […] The TZM-bl indicator cell line thus allows a quantitative analysis of HIV infection efficiency.
D3 was composed of amino acids of the D-enantiomeric form. Forty-eight hours after infection, the TZM-bl cells were washed with PBS, fixed by adding formaldehyde/glutaraldehyde, and subsequently washed again. The β-galactosidase-induced blue coloration of the cells was carried out by incubation overnight with a X-Gal solution. The coloring solution was removed the following day, the fixed cells were washed again with PBS and analyzed for blue coloration by way of optical microscopy. Since these reporter cells also express luciferase, in addition to the β-galactosidase, proportionally with the infection rate, this effect could also be determined quantitatively. For this purpose, the cells were infected in the same manner and, after being washed twice with PBS, were lysed using 1× passive lysis buffer (PLB). After adding luciferase substrate solution, the light intensity at the 560 nm wavelength created by the oxidation of luciferin, which, in turn, is catalyzed by the firefly luciferase enzyme, was measured. […]

[3] = system: HIV-1; remark: listed apart in the source
Description: So as to analyze the effect of the amyloidogenic inhibitor D3 as a potential therapeutic agent for reducing amyloid peptide-promoted retroviral propagation, adherently growing TZM-bl cells were infected with HIV-1. These cells express the HIV-1 receptors CD4, CXCR4 and CCR5, which is why they are permissive both for T-tropic and M-tropic HIV isolates. […] The TZM-bl indicator cell line thus allows a quantitative analysis of HIV infection efficiency.
D3 was composed of amino acids of the D-enantiomeric form. Forty-eight hours after infection, the TZM-bl cells were washed with PBS, fixed by adding formaldehyde/glutaraldehyde, and subsequently washed again. The β-galactosidase-induced blue coloration of the cells was carried out by incubation overnight with a X-Gal solution. The coloring solution was removed the following day, the fixed cells were washed again with PBS and analyzed for blue coloration by way of optical microscopy. Since these reporter cells also express luciferase, in addition to the β-galactosidase, proportionally with the infection rate, this effect could also be determined quantitatively. […] After adding luciferase substrate solution, the light intensity at the 560 nm wavelength created by the oxidation of luciferin, which, in turn, is catalyzed by the firefly luciferase enzyme, was measured. […]

[4] = number of cells colored in blue and measured light intensity

Substance	luciferase activity of infected cells, mean value ([1]; 0.5 μg/ml peptide)	luciferase activity of infected cells, mean value ([1]; 5 μg/ml peptide)	lowering of the increased infectivity of the viruses caused by fibrils associated with SEVI [1]	decrease in number of infected cells compared to the untreated cells with amyloid-beta fibrils ([2]; 5 μg/ml D3, Aβ1-42 fibrils 50 μg/ml, TZM-bl cells, FIG. 2D)	reduction of infection rate promoted by Aβ [2, 4]	decrease in number of infected cells compared to the untreated cells with SEVI fibrils ([3]; 0.5 μg/ml D3, SEVI fibrils, TZM-bl cells, FIG. 2C)	reduction of infection rate promoted by SEVI [3, 4]
rprtrlhthrnrrprtrlhthrnr ([dR][dP][dR][dT][dR][dL][dH][dT][dH][dR][dN][dR][dR][dP][dR][dT][dR][dL][dH][dT][dH][dR][dN][dR]) [D3D3, dimer of two D3 monomer units]	5529.7	1321.0	approximately 80%	–	–	–	–
rprtrlhthrnr ([dR][dP][dR][dT][dR][dL][dH][dT][dH][dR][dN][dR]) [D3]	7112.7	4368.0	approximately 80%	approximately 90%	considerably reduce	approximately 60%	considerably reduce
